Values after ≈ are worked out from the molar mass of the structure shown. Active and inactive are the calls of the source. The rule behind the calls is not given here.
Tests used:
[1] = Cytotoxicity against human HepG2 cells incubated for 24 hrs by XTT assay; format: toxicity, cell-based; conditions: read-out: LD50
Clostridioides difficile [2] = test: Antibacterial activity against Clostridium difficile ATTC43255 assessed as spore germination inhibition at 45 uM incubated for 60 mins by spectrometry relative to control; format: functional; conditions: ATTC43255, 1 h
Clostridioides difficile [3] = test: Antibacterial activity against Clostridium difficile ATTC43255 assessed as spore germination inhibition incubated for 60 mins by spectrometry; format: functional, organism-based; conditions: ATTC43255, 1 h
[4] = Selectivity index, ratio of LD50 for cytotoxicity against human HepG2 cells to IC50 for antibacterial activity against Clostridium difficile ATTC43255 assessed as spore germination inhibition; format: toxicity, cell-based; conditions: read-out: Ratio LD50/IC50
Clostridioides difficile [5] = test: Antibacterial activity against Clostridium difficile ATTC43255 incubated for 24 to 48 hrs anaerobically by colony counting method; format: functional; conditions: time 24-48 hrs
Enterococcus faecalis = test: Antibacterial activity against Enterococcus faecalis ATCC 29212; format: functional
Klebsiella pneumoniae = test: Antibacterial activity against Klebsiella pneumoniae ATCC 700603; format: functional
Staphylococcus aureus [6] = test: Antibacterial activity against Staphylococcus aureus ATCC 29213; format: functional
[7] = test system: Staphylococcus epidermidis; test: Antibacterial activity against Staphylococcus epidermidis ATCC 35547; format: functional
[8] = test system: Staphylococcus haemolyticus; test: Antibacterial activity against Staphylococcus haemolyticus ATCC 29970; format: functional
Lactobacillus gasseri = test: Antibacterial activity against Lactobacillus gasseri HM-644; format: functional
Staphylococcus aureus [9] = test: Antibacterial activity against Staphylococcus aureus NRS119; format: functional
Acinetobacter baumannii = test: Antibacterial activity against Acinetobacter baumannii ATCC 17961; format: functional
Bifidobacterium longum = test: Antibacterial activity against Bifidobacterium longum HM-846; format: functional
Eubacterium sp. = test: Antibacterial activity against Eubacterium sp. HM-178; format: functional
Staphylococcus aureus [10] = test: Antibacterial activity against vancomycin-resistant Staphylococcus aureus VRS1 clinical isolate; format: functional
Staphylococcus aureus [11] = test: Antibacterial activity against Staphylococcus aureus NRS100; format: functional
Klebsiella aerogenes = test: Antibacterial activity against Enterobacter aerogenes ATCC 35029; format: functional
Pseudomonas aeruginosa = test: Antibacterial activity against Pseudomonas aeruginosa ATCC 27853; format: functional
Clostridioides difficile [12] = test: Antibacterial activity against Clostridium difficile RMA26675; format: functional
Bacillus cereus = test: Antibacterial activity against Bacillus cereus ATCC 13061; format: functional
Bacteroides fragilis = test: Antibacterial activity against Bacteroides fragilis HM-709; format: functional
Fusobacterium nucleatum = test: Antibacterial activity against methicillin/oxacillin/tetracycline-resistant mecA-positive Fusobacterium nucleatum HM-992; format: functional
Veillonella = test: Antibacterial activity against Veillonella sp. HM-49; format: functional
[13] = test system: Limosilactobacillus reuteri; test: Antibacterial activity against vancomycin-susceptible Lactobacillus reuteri HM-102 clinical isolate; format: functional
Clostridioides difficile [14] = test: Antibacterial activity against Clostridium difficile RMA23828; format: functional
Enterococcus faecium [15] = test: Antibacterial activity against vancomycin-susceptible Enterococcus faecium 119-39A; format: functional
Clostridioides difficile [16] = test: Antibacterial activity against metronidazole-resistant Clostridium difficile […] clinical isolate; format: functional
Enterococcus faecium [17] = test: Antibacterial activity against vancomycin-resistant Enterococcus faecium 106 clinical isolate; format: functional
Clostridioides difficile [18] = test: Antibacterial activity against fidaxomicin-resistant Clostridium difficile RMA23691 clinical isolate; format: functional
Escherichia coli = test: Antibacterial activity against Escherichia coli ATCC 25922; format: functional
[19] = Binding affinity to bacterial GerS assessed as dissociation constant by MST assay; design: species or system Bacteria
[20] = Binding affinity to bacterial CspA assessed as dissociation constant by MST assay; design: species or system Bacteria
Bacteria [21] = test: Binding affinity to bacterial pdaA assessed as dissociation constant by MST assay
[22] = Binding affinity to N-terminal His-tagged full-length Clostridium difficile SleC extracted from Escherichia coli LOBSTR-RIL assessed as dissociation constant by MST assay; design: species or system Clostridioides difficile
Bacteria [23] = test: Binding affinity to bacterial cwID assessed as dissociation constant by MST assay
[24] = Binding affinity to bacterial CspB assessed as dissociation constant by MST assay; design: species or system Bacteria
[25] = Binding affinity to bacterial prepro-SleC assessed as dissociation constant by MST assay; design: species or system Bacteria
[26] = Binding affinity to bacterial pro-SleC assessed as dissociation constant by MST assay; design: species or system Bacteria

CC(C)Oc1ccc(-c2nc(-c3cccc4c3CC[C@@H]4NCCO)no2)cc1C#N.Cl [OZANIMOD HYDROCHLORIDE]
CC50 at 24 h [1]: 46 µg/mL
inhibition at 45 µM (Clostridioides difficile [2]): 62%
IC50 (Clostridioides difficile [3]): 39 µM
selectivity ratio [4]: 3
MIC (Clostridioides difficile [5]): 64 µg/mL

CCc1c(Cl)c(O)c(Cl)c(O)c1C(=O)O[C@H]1[C@H](O)[C@H](OC)[C@H](OC/C2=C\C=C\C[C@H](O)/C(C)=C/[C@H](CC)[C@@H](O[C@@H]3OC(C)(C)[C@@H](OC(=O)C(C)C)[C@H](O)[C@@H]3O)/C(C)=C/C(C)=C/C[C@@H]([C@@H](C)O)OC2=O)O[C@@H]1C [FIDAXOMICIN]
MIC (Enterococcus faecalis): > 16 µg/mL
MIC (Klebsiella pneumoniae): > 128 µg/mL
MIC (Staphylococcus aureus [6]): 16 µg/mL (≈ 15.1 µM)
MIC [7]: 4 µg/mL (≈ 3.78 µM)
MIC [8]: 16 µg/mL (≈ 15.1 µM)
MIC (Lactobacillus gasseri): 2 µg/mL (≈ 1.89 µM)
MIC (Staphylococcus aureus [9]): 2 µg/mL (≈ 1.89 µM)
MIC (Acinetobacter baumannii): > 128 µg/mL
MIC (Bifidobacterium longum): 0.01 µg/mL (≈ 0.00945 µM)
MIC (Eubacterium sp.): 16 µg/mL (≈ 15.1 µM)
MIC (Staphylococcus aureus [10]): 64 µg/mL (≈ 60.5 µM)
MIC (Staphylococcus aureus [11]): 16 µg/mL (≈ 15.1 µM)
MIC (Klebsiella aerogenes): > 128 µg/mL
MIC (Pseudomonas aeruginosa): > 128 µg/mL
MIC (Clostridioides difficile [12]): 4 µg/mL (≈ 3.78 µM)
MIC (Bacillus cereus): 16 µg/mL (≈ 15.1 µM)
MIC (Bacteroides fragilis): > 32 µg/mL
MIC (Fusobacterium nucleatum): < 0.06 µg/mL
MIC (Veillonella): 8 µg/mL (≈ 7.56 µM)
MIC [13]: > 32 µg/mL
MIC (Clostridioides difficile [14]): > 8 µg/mL
MIC (Enterococcus faecium [15]): > 16 µg/mL
MIC (Clostridioides difficile [16]): 0.125 µg/mL (≈ 0.118 µM)
MIC (Enterococcus faecium [17]): > 16 µg/mL
MIC (Clostridioides difficile [18]): 4 µg/mL (≈ 3.78 µM)
MIC (Escherichia coli): > 128 µg/mL

Cl.NCc1ccc(-c2nc(-c3ccc(I)cc3)no2)cc1
CC50 at 24 h [1]: 39 µg/mL
inhibition at 45 µM (Clostridioides difficile [2]): 51%
IC50 (Clostridioides difficile [3]): 37 µM
selectivity ratio [4]: 3
MIC (Clostridioides difficile [5]): 8 µg/mL

CN[C@H](CC(C)C)C(=O)N[C@H]1C(=O)N[C@@H](CC(N)=O)C(=O)N[C@H]2C(=O)N[C@H]3C(=O)N[C@H](C(=O)N[C@H](C(=O)O)c4cc(O)cc(O)c4-c4cc3ccc4O)[C@H](O)c3ccc(c(Cl)c3)Oc3cc2cc(c3O[C@@H]2O[C@H](CO)[C@@H](O)[C@H](O)[C@H]2O[C@H]2C[C@](C)(N)[C@H](O)[C@H](C)O2)Oc2ccc(cc2Cl)[C@H]1O [VANCOMYCIN]
MIC (Enterococcus faecalis): 2 µg/mL (≈ 1.38 µM)
MIC (Klebsiella pneumoniae): > 128 µg/mL
MIC (Acinetobacter baumannii): > 128 µg/mL
MIC (Bifidobacterium longum): 0.25 µg/mL (≈ 0.173 µM)
MIC (Staphylococcus aureus [10]): 64 µg/mL (≈ 44.2 µM)
MIC (Klebsiella aerogenes): > 128 µg/mL
MIC (Pseudomonas aeruginosa): > 128 µg/mL
MIC (Bacteroides fragilis): 16 µg/mL (≈ 11 µM)
MIC (Fusobacterium nucleatum): 0.25 µg/mL (≈ 0.173 µM)
MIC (Veillonella): > 32 µg/mL
MIC [13]: > 32 µg/mL
MIC (Clostridioides difficile [14]): 0.5 µg/mL (≈ 0.345 µM)
MIC (Clostridioides difficile [16]): 0.25 µg/mL (≈ 0.173 µM)
MIC (Enterococcus faecium [17]): > 16 µg/mL
MIC (Escherichia coli): > 128 µg/mL

Oc1ccc(-c2nc(-c3ccc(OC4CCCC4)cc3)no2)cc1
MIC (Enterococcus faecalis): 4 µg/mL (≈ 12.4 µM)
MIC (Klebsiella pneumoniae): > 128 µg/mL
MIC (Staphylococcus aureus [6]): 2 µg/mL (≈ 6.2 µM)
MIC [7]: 2 µg/mL (≈ 6.2 µM)
MIC [8]: 2 µg/mL (≈ 6.2 µM)
CC50 at 24 h [1]: 22 µg/mL (≈ 68.2 µM)
MIC (Lactobacillus gasseri): > 128 µg/mL
MIC (Staphylococcus aureus [9]): 2 µg/mL (≈ 6.2 µM)
MIC (Acinetobacter baumannii): > 128 µg/mL
Kd [19]: > 200 µM
MIC (Bifidobacterium longum): 1 µg/mL (≈ 3.1 µM)
inhibition at 45 µM (Clostridioides difficile [2]): 26%
MIC (Eubacterium sp.): 0.5 µg/mL (≈ 1.55 µM)
MIC (Staphylococcus aureus [10]): 2 µg/mL (≈ 6.2 µM)
MIC (Staphylococcus aureus [11]): 2 µg/mL (≈ 6.2 µM)
MIC (Klebsiella aerogenes): > 128 µg/mL
Kd [20]: > 200 µM
MIC (Pseudomonas aeruginosa): > 128 µg/mL
MIC (Clostridioides difficile [12]): 4 µg/mL (≈ 12.4 µM)
Activity (Bacteria [21]): inactive
MIC (Bacillus cereus): 2 µg/mL (≈ 6.2 µM)
IC50 (Clostridioides difficile [3]): 74 µM
MIC (Bacteroides fragilis): 2 µg/mL (≈ 6.2 µM)
MIC (Fusobacterium nucleatum): 2 µg/mL (≈ 6.2 µM)
MIC (Veillonella): > 128 µg/mL
MIC [13]: > 128 µg/mL
MIC (Clostridioides difficile [14]): 4 µg/mL (≈ 12.4 µM)
MIC (Enterococcus faecium [15]): 2 µg/mL (≈ 6.2 µM)
Kd [22]: > 200 µM
MIC (Clostridioides difficile [16]): 2 µg/mL (≈ 6.2 µM)
Activity (Bacteria [23]): inactive
MIC (Enterococcus faecium [17]): 2 µg/mL (≈ 6.2 µM)
MIC (Clostridioides difficile [18]): 4 µg/mL (≈ 12.4 µM)
Kd [24]: 75 µM
MIC (Escherichia coli): > 128 µg/mL
Kd [25]: 4.3 µM
Kd [26]: 91 µM

FC(F)(F)c1ccc(Oc2ccc(-c3noc(-c4n[nH]cc4I)n3)cc2)cc1
inhibition at 45 µM (Clostridioides difficile [2]): < 10%

NCc1ccc(-c2nc(-c3ccc(OC4CCC4)cc3)no2)cc1
inhibition at 45 µM (Clostridioides difficile [2]): 24%

C[C@@H](N)c1nc(-c2ccc(OC3CCCC3)cc2)no1
inhibition at 45 µM (Clostridioides difficile [2]): < 10%

CCCCOc1ccc(-c2noc(-c3ccc(O)cc3)n2)cc1
inhibition at 45 µM (Clostridioides difficile [2]): < 10%

FC(F)(F)c1ccc(Oc2ccc(-c3noc(-c4n[nH]cc4Cl)n3)cc2)cc1
inhibition at 45 µM (Clostridioides difficile [2]): < 10%

CNCc1ccc(-c2nc(-c3ccc(OC4CCCC4)cc3)no2)cc1
inhibition at 45 µM (Clostridioides difficile [2]): 37%

COc1cc(-c2nc(-c3ccc(Oc4ccc(C(F)(F)F)cc4)cc3)no2)ccc1O
inhibition at 45 µM (Clostridioides difficile [2]): < 10%

Nc1c[nH]nc1-c1nc(-c2ccc(Oc3ccc(C(F)(F)F)cc3)cc2)no1
inhibition at 45 µM (Clostridioides difficile [2]): < 10%

COC(OC)c1ccc(-c2noc(-c3ccc(O)cc3)n2)cc1
inhibition at 45 µM (Clostridioides difficile [2]): < 10%

NCc1ccc(-c2nc(-c3ccc(Oc4ccc(C(F)(F)F)cc4)cc3)no2)cc1
inhibition at 45 µM (Clostridioides difficile [2]): 41%

N#Cc1ccc(-c2nc(-c3ccc(OC4CCCC4)cc3)no2)cc1
inhibition at 45 µM (Clostridioides difficile [2]): < 10%

Cl.NCc1ccc(-c2nc(-c3ccc(Oc4ccc(F)cc4)cc3)no2)cc1
CC50 at 24 h [1]: 38 µg/mL
inhibition at 45 µM (Clostridioides difficile [2]): 60%
IC50 (Clostridioides difficile [3]): 45 µM
selectivity ratio [4]: 2
MIC (Clostridioides difficile [5]): 16 µg/mL

FC(F)(F)c1ccc(Oc2ccc(-c3noc(-c4ccc(Br)cc4)n3)cc2)cc1
inhibition at 45 µM (Clostridioides difficile [2]): < 10%

CCCOc1ccc(-c2noc(-c3ccc(CN)cc3)n2)cc1
inhibition at 45 µM (Clostridioides difficile [2]): 12%

O=C(O)c1ccc(-c2nc(-c3ccc(OC4CCCC4)cc3)no2)cc1
inhibition at 45 µM (Clostridioides difficile [2]): < 10%

FC(F)(F)c1ccc(Oc2ccc(-c3noc(-c4cn[nH]n4)n3)cc2)cc1
inhibition at 45 µM (Clostridioides difficile [2]): < 10%

FC(F)(F)c1ccc(Oc2ccc(-c3noc(-c4n[nH]cc4NC4CCCC4)n3)cc2)cc1
inhibition at 45 µM (Clostridioides difficile [2]): < 10%

From ChEMBL document CHEMBL6134901 (J Med Chem, 2025)
